Experimental findings from US20230399378A1, “PEPTIDE-BASED DELIVERY OF AGENTS” (THE FLOREY INSTITUTE OF NEUROSCIENCE AND MENTAL HEALTH, priority 2020, published 2023) are described below.

A short description of data set [1]: Serum stability in 50% human serum at 37 °C (RP-HPLC, one-phase decay half-life). As to conditions: for half-life at 500 µM: human, serum (50% human serum).
Experimental: Serum stability analysis was conducted for each peptide (7×50 nmol) shown in Table 3 in 50% human serum (100 μL) at 37° C. At the end of each time point (0, 10, 30, 60, 120, 240, and 480 min), 1 M guanidine hydrochloride solution (200 μL) and ice-cold acetonitrile (600 μL) were added, and the serum-peptide solution was centrifuged at 14000 g for 10 min. The supernatant was lyophilised and redissolved in water (200 μL). All samples were analysed by RP-HPLC in the presence of phenol (50 nmol) as an internal standard, using water and acetonitrile containing 0.1% TFA, with a gradient of 10-80% acetonitrile over 30 min, and a flow rate of 1.5 mL/min. The percentage of peptide remaining was measured based on the area under curve. The percentage of peptide remaining versus time data was fitted to a non-linear one-phase exponential decay model in GraphPad Prism 9.2.0 to determine the half-life for each peptide.
A further data set has as its system SMN2. Kind of data set: SMN2 splice-switching for exon 7 inclusion by RT-qPCR in SMA Type I patient-derived fibroblasts (Example 2). It is filed as cell-based, human. As to conditions: for exon-7 inclusion activity, change in words: 0.5 μM and 1 μM, versus comparator; for level of exon-7 inclusion activity (full length SMN2/HPRT1, normalised to untreated control set to 1): treated 4 hrs, then 20 hrs growth medium, mean±SEM. The text has this:
FIG. 3. (A) SMN2 pre-mRNA exon-7 skipping and production of 80-90% SMN2Δ7 mRNA transcripts. Peptide-PMO binding to Intron-splicing silencer (ISS-N1) and restoration of SMN2 splicing and production of full-length SMN2 mRNA transcripts. The positions of forward and reverse primers highlighted on full-length mRNA. (B)-(C) Effect of administration of peptides linked to PMO for SMN2 exon 7 inclusion, measured as change in the level of full length SMN2/HPRT1 in SMA patient-derived fibroblasts, each at two concentrations, 0.5 μM and 1 μM (or 1 μM and 5 μM in the case of PMO alone). UT, untreated. (B) For PMO constructs, from left to right: PMO; ApoE(141-150)-PMO; ApoE(133-150)-PMO. (C) For PMO constructs, from left to right: PMO; HA2-PMO; GALA-PMO; NLS-PMO; ApoE(141-150)-PMO; HA2-ApoE(141-150)-PMO; GALA-ApoE(141-150)-PMO; NLS-ApoE(141-150)-PMO; H4-ApoE(141-150)-PMO; A4-ApoE(141-150)-PMO. *P<0.05,**P<0.001, ***P<0.0001 cf. Untreated (control) and PMO (1 and 5 μM); #P<0.001 cf. GALA-/NLS-/H4-ApoE(141-150)-PMO (1 μM), ^<0.001 cf. ApoE(133-150)-PMO (0.5 and 1 μM), ^OP<0.001 cf. ApoE(141-150)-PMO (1 μM), ^&P<0.05 cf.
The inventors then evaluated cellular uptake and activity of these peptide-PMO conjugates in SMA Type I patient-derived fibroblasts with two copies of SMN2. Efficiency of uptake was assessed by RT-qPCR using SMN2 splice-switching for exon 7 inclusion (see FIG. 3A).
SMA Type I patient-derived fibroblasts (SMN2^+/+, GM03813, Coriell Cell Repositories) were maintained in Dulbecco's Modified Eagle's Medium (DMEM), supplemented with 10% foetal bovine serum (FBS), 1% Penicillin/Streptomycin and 1% L-glutamine (L-glu) at 37° C. Cells were plated in 6-well plates at a density of 3×10^5/well in 6 well plates one day prior to treatment with PMO and peptide-PMO conjugates. Cells used were from passage 8-22. PMO and the peptide-PMO conjugates were dissolved in nuclease-free water and diluted to appropriate concentrations in Opti-MEM reduced serum medium. Cells were treated for 4 hrs at 37° C. The transfection medium was then removed and replaced with growth medium in which the cells were incubated for 20 hrs.
Cells were washed with PBS and total cellular RNA was extracted using Trizol (TRI Reagent®, Sigma) according to the manufacturer's instructions (Life Technologies). 400 ng purified RNA was reverse transcribed into cDNA using BioRad iScript Reverse Transcription Supermix kit according to the manufacturer's instructions. The reverse transcription was performed using the Veriti Thermal Cycler (ThermoFisher Scientific) with the thermal cycling conditions: 25° C. for 5 min, 46° C. for 20 min, 95° C. for 1 min followed by a 4° C. holding period.
Quantitative PCR (20 ng cDNA/well) was carried out in a 96-well plate in triplicate using SsoAdvanced Universal SYBR Green Supermix on a Biorad CFX96 Touch™ Real-Time PCR detection system. The amplification was carried out using full-length SMN2-specific primers: Ex-6 Forward 5′-[…]-3′ (SEQ ID NO:10) and Ex7-8 reverse 5′[…]-3′ (SEQ ID NO:11). Human HPRT1 was used as the internal reference gene with forward primer sequence 5′-[…]-3′ (SEQ ID NO:12) and reverse primer sequence 5′-[…]-3′ (SEQ ID NO:13). The ΔΔCt method was used to correct the Ct values against the HPRT1 Ct values. The values obtained were normalised to the untreated control values which were set to 1. Statistical analysis was carried out using one-way ANOVA with post-hoc Bonferroni for multiple groups comparison (GraphPad Prism V.8, 2018). All data are expressed as mean±SEM from at least three independent experiments with p<0.05 considered significant.

Square brackets hold non-standard residues; d marks the D form. Side chains are listed from the residue outwards. Peptide text beside a SMILES is read from it. PMO = not defined here; AEEA = NCCOCCOCC(=O)O; Ahx = NCCCCCC(=O)O; Mpa = O=C(O)CCS

A word on the half-life: it is the time in which the quantity being followed falls by half. Regarding `CC[C@H](C)[C@H](NC(=O)[C@H](C)NC(=O)[C@H](Cc1c[nH]cn1)NC(=O)[C@H](Cc1ccccc1)NC(=O)[C@H](CC(C)C)NC(=O)CNC(C)=O)C(=O)N[C@@H](C)C(=O)N[C@@H](Cc1c[nH]cn1)C(=O)N[C@@H](Cc1ccccc1)C(=O)N[C@H](C(=O)N[C@@H](Cc1c[nH]cn1)C(=O)NCC(=O)NCC(=O)N[C@@H](Cc1c[nH]c2ccccc12)C(=O)N[C@@H](Cc1c[nH]cn1)C(=O)NCCOCCOCC(=O)N[C@@H](CCCCNC(=O)COCCOCCNC(=O)CCS)C(=O)NCCOCCOCC(=O)N[C@@H](CC(C)C)C(=O)N[C@@H](CCCNC(=N)N)C(=O)N[C@H](C(=O)N[C@@H](CCCNC(=N)N)C(=O)N[C@@H](CC(C)C)C(=O)N[C@@H](C)C(=O)N[C@@H](CO)C(=O)N[C@@H](Cc1c[nH]cn1)C(=O)N[C@@H](CC(C)C)C(=O)N[C@@H](CCCNC(=N)N)C(=O)N[C@@H](CCCCN)C(=O)N[C@@H](CC(C)C)C(=O)N[C@@H](CCCNC(=N)N)C(=O)N[C@@H](CCCCN)C(=O)N[C@@H](CCCNC(=N)N)C(=O)N[C@@H](CC(C)C)C(=O)N[C@@H](CC(C)C)C(=O)N[C@@H](CCCNC(=N)N)C(=O)O)C(C)C)[C@@H](C)CC` [Br-HA2-(TPA)-ApoE(133-150), Ac-GLFHAIAHFIHGGWH-mPEG-K(mPEG-TPA)-mPEG-LRVRLASHLRKLRKRLLR] (Ac-GLFHAIAHFIHGGWH[AEEA]K([AEEA-Mpa])[AEEA]LRVRLASHLRKLRKRLLR-OH), in data set [1], the half-life at 500 µM was 60 min. As for `CC[C@H](C)[C@H](NC(=O)[C@H](C)NC(=O)[C@H](Cc1c[nH]cn1)NC(=O)[C@H](Cc1ccccc1)NC(=O)[C@H](CC(C)C)NC(=O)CNC(C)=O)C(=O)N[C@@H](C)C(=O)N[C@@H](Cc1c[nH]cn1)C(=O)N[C@@H](Cc1ccccc1)C(=O)N[C@H](C(=O)N[C@@H](Cc1c[nH]cn1)C(=O)NCC(=O)NCC(=O)N[C@@H](Cc1c[nH]c2ccccc12)C(=O)N[C@@H](Cc1c[nH]cn1)C(=O)NCCOCCOCC(=O)N[C@@H](CCCCNC(=O)COCCOCCNC(=O)CCS)C(=O)NCCOCCOCC(=O)N[C@@H](CC(C)C)C(=O)N[C@@H](CCCNC(=N)N)C(=O)N[C@@H](CCCCN)C(=O)N[C@@H](CC(C)C)C(=O)N[C@@H](CCCNC(=N)N)C(=O)N[C@@H](CCCCN)C(=O)N[C@@H](CCCNC(=N)N)C(=O)N[C@@H](CC(C)C)C(=O)N[C@@H](CC(C)C)C(=O)N[C@@H](CCCNC(=N)N)C(=O)O)[C@@H](C)CC` [Br-HA2-(TPA)-ApoE(141-150), Ac-GLFHAIAHFIHGGWH-mPEG-K(mPEG-TPA)-mPEG-LRKLRKRLLR] (Ac-GLFHAIAHFIHGGWH[AEEA]K([AEEA-Mpa])[AEEA]LRKLRKRLLR-OH), in data set [1], the half-life at 500 µM was 36 min. On to `CC[C@@H](C)[C@@H](NC(=O)[C@@H](C)NC(=O)[C@@H](Cc1c[nH]cn1)NC(=O)[C@@H](Cc1ccccc1)NC(=O)[C@H](NC(=O)[C@@H](Cc1c[nH]cn1)NC(=O)CNC(=O)CNC(=O)[C@@H](Cc1c[nH]c2ccccc12)NC(=O)[C@@H](Cc1c[nH]cn1)NC(C)=O)[C@H](C)CC)C(=O)N[C@H](C)C(=O)N[C@H](Cc1c[nH]cn1)C(=O)N[C@H](Cc1ccccc1)C(=O)N[C@H](CC(C)C)C(=O)NCC(=O)NCCOCCOCC(=O)N[C@@H](CCCCNC(=O)COCCOCCNC(=O)CCS)C(=O)NCCOCCOCC(=O)N[C@H](CCCNC(=N)N)C(=O)N[C@H](CC(C)C)C(=O)N[C@H](CC(C)C)C(=O)N[C@H](CCCNC(=N)N)C(=O)N[C@H](CCCCN)C(=O)N[C@H](CCCNC(=N)N)C(=O)N[C@H](CC(C)C)C(=O)N[C@H](CCCCN)C(=O)N[C@H](CCCNC(=N)N)C(=O)N[C@H](CC(C)C)C(=O)N[C@H](Cc1c[nH]cn1)C(=O)N[C@H](CO)C(=O)N[C@H](C)C(=O)N[C@H](CC(C)C)C(=O)N[C@H](CCCNC(=N)N)C(=O)N[C@@H](C(=O)N[C@H](CCCNC(=N)N)C(=O)N[C@H](CC(C)C)C(=O)O)C(C)C` [RI Br-HA2-(TPA)-ApoE(133-150), Ac-hwgghifhaiahflg-mPEG-K(mPEG-TPA)-mPEG-rllrkrlkrlhsalrvrl] (Ac-[dH][dW]GG[dH][dI][dF][dH][dA][dI][dA][dH][dF][dL]G[AEEA]K([AEEA-Mpa])[AEEA][dR][dL][dL][dR][dK][dR][dL][dK][dR][dL][dH][dS][dA][dL][dR][dV][dR][dL]-OH), for which the “proteolytic stability compared to the parent L-peptides” value in data set [1] (50% human serum, 37° C.) was “significantly higher proteolytic stability”. Moreover, in data set [1], the half-life at 500 µM was 96 min. As for `CC[C@@H](C)[C@@H](NC(=O)[C@@H](C)NC(=O)[C@@H](Cc1c[nH]cn1)NC(=O)[C@@H](Cc1ccccc1)NC(=O)[C@H](NC(=O)[C@@H](Cc1c[nH]cn1)NC(=O)CNC(=O)CNC(=O)[C@@H](Cc1c[nH]c2ccccc12)NC(=O)[C@@H](Cc1c[nH]cn1)NC(C)=O)[C@H](C)CC)C(=O)N[C@H](C)C(=O)N[C@H](Cc1c[nH]cn1)C(=O)N[C@H](Cc1ccccc1)C(=O)N[C@H](CC(C)C)C(=O)NCC(=O)NCCOCCOCC(=O)N[C@@H](CCCCNC(=O)COCCOCCNC(=O)CCS)C(=O)NCCOCCOCC(=O)N[C@H](CCCNC(=N)N)C(=O)N[C@H](CC(C)C)C(=O)N[C@H](CC(C)C)C(=O)N[C@H](CCCNC(=N)N)C(=O)N[C@H](CCCCN)C(=O)N[C@H](CCCNC(=N)N)C(=O)N[C@H](CC(C)C)C(=O)N[C@H](CCCCN)C(=O)N[C@H](CCCNC(=N)N)C(=O)N[C@H](CC(C)C)C(=O)O` [RI Br-HA2-(TPA)-ApoE(141-150), Ac-hwgghifhaiahflg-mPEG-K(mPEG-TPA)-mPEG-rllrkrlkrl] (Ac-[dH][dW]GG[dH][dI][dF][dH][dA][dI][dA][dH][dF][dL]G[AEEA]K([AEEA-Mpa])[AEEA][dR][dL][dL][dR][dK][dR][dL][dK][dR][dL]-OH), in data set [1], the half-life at 500 µM was 18 min. Turning to “Ac-AAAA-X-LRKLRKRLLR-X-C-PMO [A4-ApoE(141-150)-PMO]”, the “exon-7 inclusion activity, change in words” value in the data set on SMN2 is reported as “significant decrease”. As for “Ac-HHHH-X-LRKLRKRLLR-X-C-PMO [H4-ApoE(141-150)-PMO]”, the “level of exon-7 inclusion activity (full length SMN2/HPRT1, normalised to untreated control set to 1)” value in the data set with SMN2 (0.5 μM) was 1.81±0.02; in the data set with SMN2 (1 μM), 2.0±0.05.

As for “Ac-VQRKRQKLMP-X-LRKLRKRLLR-X-C-PMO [NLS-ApoE(141-150)-PMO]”, the “exon-7 inclusion activity, change in words” value in the data set with SMN2 is listed as “significant increase in the activity”. The same measure, in the same setting: then “Ac-WEAALAEALAEALAEHLAEALAEALEALAA-X-C-PMO (Ac-WEAALAEALAEALAEHLAEALAEALEALAA[Ahx]C-{PMO}; reading uncertain; also: printed as Ac-WEAALAEALAEALAEHLAEALAEALEALAA-X-C-PMO) [GALA-PMO]”, with “no significant increase”. Turning to “Ac-WEAALAEALAEALAEHLAEALAEALEALAA-X-LRKLRKRLLR-X-C-PMO [GALA-ApoE(141-150)-PMO]”, the “exon-7 inclusion activity, change in words” value with SMN2 is on record as “significant increase in the activity”. The “level of exon-7 inclusion activity (full length SMN2/HPRT1, normalised to untreated control set to 1)” value is 1.41±0.04 with SMN2 (0.5 μM) and 2.14±0.14 in the data set with SMN2 (1 μM). Turning to “Myr-LRKLRKRLLR-X-C-PMO [Myr-ApoE(141-150)-PMO]”, in the data set on SMN2 (concentration not given, compared to acetylated counterpart), the “exon-7 inclusion activity (full length SMN2/HPRT1, normalised to untreated control set to 1)” value stood at 1.91±0.03.
